≈ marks a conversion by molar mass, not a printed value.
Legend:
Type in all cases: physicochemical
Bulk stability = details: 25° C./92.5% RH open, 40° C./75% RH open, 60° C. closed container; 1 week
Description: Form A was placed at 25° C./92.5% RH in an open container, at 40° C./75% RH in an open container, and at 60° C. in a closed container for 1 week. Samples after the stress were characterized by XRPD and HPLC and inspected for color change.

[1] = Solubility, Experiment 1 (target concentration 2 mg/mL); details: for XRPD of residual solid / Solubility: 37° C.
Description: Experiment 1: 5 mg of Form A and 5 mg of amorphous form were weighed into an 8 mL glass vial, respectively. 2.5 mL of solubility medium was added. Obtained suspensions/solutions were stirred at 37° C. at 400 rpm and sampled at 2 hours and at 24 hours. Obtained suspensions/solutions were filtered through a 0.45 μm PVDF membrane filter by centrifugation at 14,000 rpm and at 37° C. Filtrate were analyzed by HPLC and pH meter for solubility and pH value, respectively. Residual solids (wet cakes) from the 24 hours samples were also characterized by XRPD to determine physical form.

Hygroscopicity by DVS = test: Hygroscopicity by DVS
Description: Water sorption and desorption behavior Form A was investigated by DVS at 25° C. with a cycle of 40-0-95-0-40% RH. XRPD was measured after the DVS test to determine form change. […] The DVS test measured 0.4% water uptake from 40% to 80% RH, see FIG. 4.

[2] = Solubility, Experiment 2 (target concentration 5 mg/mL)
Description: Experiment 2: 5 mg of Form A and 5 mg of amorphous form were weighed into an 8 mL glass vial, respectively. 1 mL of solubility medium was added. Obtained suspensions/solutions were stirred at 37° C. at 400 rpm and sampled at 2 hours and at 24 hours. Obtained suspensions/solutions were filtered through a 0.45 μm PVDF membrane filter by centrifugation at 14,000 rpm and at 37° C. Filtrate were analyzed by HPLC and pH meter for solubility and pH value, respectively.

[3] = Mechanic properties (compression, dry grinding, wet granulation simulation)
Description: Compression simulation experiments: about 20 mg of Form A was compressed for 5 minutes under 2 MPa, 5 MPa and 10 MPa with a hydraulic press. Potential form change and degree of crystallinity were evaluated by XRPD.
Dry grinding simulation experiments: about 20 mg of Form A was ground manually with a mortar and a pestle for 5 min. Potential form change and degree of crystallinity were evaluated by XRPD.
Wet granulation simulation experiments: water or ethanol was added drop-wisely to about 20 mg of Form A until the sample was wetted sufficiently. Wet sample was ground gently with in a mortar and a pestle for 5 min. Post granulation sample was dried under ambient condition for 10 min. Potential form change and degree of crystallinity were evaluated by XRPD.

In the case of `O=S1(=O)Nc2c(cc(F)c(F)c2Nc2ccc(I)cc2F)OC[C@H](O)[C@H](O)CC12CC2` [Form A, (5R,6S)-10,11-difluoro-12-((2-fluoro-4-iodophenyl)amino)-5,6-dihydroxy-4,5,6,7-tetrahydro-1H-spiro[benzo[b][1,5,4]oxathiazecine-3,1′-cyclopropane]2,2-dioxide], the “Color change after stress” value (Bulk stability) is reported as “no change of color was observed”, the “Physical form after stress (XRPD)” value (Bulk stability) is reported as “Form A was confirmed” and the “XRPD of residual solid” value ([1]; Acetate buffer (50 mM), pH 4.5, 24 h) is reported as “Form A”. For the same compound, the Solubility ([1]; Acetate buffer (50 mM), pH 4.5, 24 h, target concentration 2 mg/mL) was 0.0051 mg/mL (≈ 8.94 µM), the solubility at 2 h ([1]; FaSSGF, pH 1.6, 37 °C, pH 1.6, fassgf or other biorelevant, thermodynamic from solid, pH 1.6, 2 h, target concentration 2 mg/mL) was 0.012 mg/mL (≈ 21 µM) and the “XRPD of residual solid” value ([1]; FaSSGF, pH 1.6, 24 h) was “Form A”. For the same compound, the Solubility ([1]; FaSSGF, pH 1.6, 24 h, target concentration 2 mg/mL) was 0.0063 mg/mL (≈ 11 µM), the Solubility ([1]; FaSSIF-v1, pH 6.5, 2 h, target concentration 2 mg/mL) was 0.27 mg/mL (≈ 473 µM) and the “XRPD of residual solid” value ([1]; FaSSIF-v1, pH 6.5, 24 h) was “Form A”. The Solubility ([1]; FaSSIF-v1, pH 6.5, 24 h, target concentration 2 mg/mL) was 0.33 mg/mL (≈ 579 µM), the solubility at 2 h ([1]; FeSSIF-v1, pH 5.0, 37 °C, pH 5, fessif, thermodynamic from solid, FeSSIF-v1, pH 5.0, 2 h, target concentration 2 mg/mL) was 1.8 mg/mL (≈ 3160 µM) and the solubility at 24 h ([1]; FeSSIF-v1, pH 5.0, 37 °C, pH 5, fessif, thermodynamic from solid, FeSSIF-v1, pH 5.0, 24 h, target concentration 2 mg/mL) was ≥ 2 mg/mL. The solubility at 2 h ([1]; HCl solution, pH 1.2, 37 °C, pH 1.2, simulated gastric fluid, thermodynamic from solid, pH 1.2, 2 h, target concentration 2 mg/mL) was 0.012 mg/mL (≈ 21 µM), the “XRPD of residual solid” value ([1]; HCl solution, pH 1.2, 24 h) was “Form A” and the Solubility ([1]; HCl solution, pH 1.2, 24 h, target concentration 2 mg/mL) was 0.0037 mg/mL (≈ 6.49 µM). The “XRPD of residual solid” value ([1]; Phosphate buffer (50 mM), pH 6.8, 24 h) was “Form A”, the Solubility ([1]; Phosphate buffer (50 mM), pH 6.8, 24 h, target concentration 2 mg/mL) was 0.0051 mg/mL (≈ 8.94 µM) and the “XRPD of residual solid” value ([1]; Water, 24 h) was “Form A”. For the same compound, the solubility at 2 h ([1]; acetate buffer (50 mM), pH 4.5, 37 °C, pH 4.5, aqueous buffer, thermodynamic from solid, pH 4.5, 2 h, target concentration 2 mg/mL) was 0.012 mg/mL (≈ 21 µM), the solubility at 2 h ([1]; phosphate buffer (50 mM), pH 6.8, 37 °C, pH 6.8, aqueous buffer, thermodynamic from solid, pH 6.8, 2 h, target concentration 2 mg/mL) was 0.013 mg/mL (≈ 22.8 µM) and the solubility at 2 h ([1]; water, 37 °C, thermodynamic from solid, 2 h, target concentration 2 mg/mL) was 0.019 mg/mL (≈ 33.3 µM). For the same compound, the “Water uptake (DVS)” value (Hygroscopicity by DVS; 25° C., from 40% to 80% RH) was 0.4%, the Hygroscopicity (Hygroscopicity by DVS; DVS at 25° C., cycle 40-0-95-0-40% RH) was “slightly hygroscopic” and the “XRPD after the DVS test (form change)” value (Hygroscopicity by DVS; after DVS cycle 40-0-95-0-40% RH) was “no form change”. The solubility at 24 h ([2]; FeSSIF-v1, pH 5.0, 37 °C, pH 5, fessif, thermodynamic from solid, 24 h) was 3 mg/mL (≈ 5260 µM), the Solubility ([2]; FeSSIF-v1, pH 5.0, 2 h, 37° C.) was 2.4 mg/mL (≈ 4210 µM) and the “Crystallinity after compression (XRPD)” value ([3]; compressed 5 minutes under 2 MPa, 5 MPa and 10 MPa) was “No obvious decrease in crystallinity”. The “Crystallinity after dry grinding (XRPD)” value ([3]; ground manually with mortar and pestle for 5 min) was “Only a slight decrease in crystallinity” and the “Crystallinity after wet granulation (XRPD)” value ([3]; water or ethanol, ground 5 min, dried 10 min) was “Only a slight decrease in crystallinity”.

Source: patent US20260193221A1, “SOLID FORMS COMPRISING (5R,6S)-10,11-DIFLUORO-12-((2-FLUORO-4-IODOPHENYL)AMINO)-5,6-DIHYDROXY-4,5,6,7-TETRAHYDRO-1H-SPIRO[BENZO[B][1,5,4]OXATHIAZECINE-3,1'-CYCLOPROPANE] 2,2-DIOXIDE, AND COMPOSITIONS COMPRISING AND METHODS OF USING THE SAME” (PASITHEA THERAPEUTICS CORP., priority 2024, published 2026)
